ChEMBL document CHEMBL4665675 (J Med Chem, 2020)
pIC50: −log10 of the molar value.

How the values were obtained:
[1] = test system: HeLa; assay: Cytotoxicity against human HeLa cells after 24 to 72 hrs by Cell Titer Blue assay; type: cell-based
[2] = molecular target: T1, carboxylesterase 1 (CES1) (Homo sapiens, UniProt P23141); assay: Substrate activity at human carboxylesterase 1 expressed in baculovirus infected Sf9 insect cells assessed as enzyme-catalysed compound cleavage incubated for 2 hrs by HPLC analysis; type: ADME; settings: read-out: Activity
T1 sequence (P23141 whole entry): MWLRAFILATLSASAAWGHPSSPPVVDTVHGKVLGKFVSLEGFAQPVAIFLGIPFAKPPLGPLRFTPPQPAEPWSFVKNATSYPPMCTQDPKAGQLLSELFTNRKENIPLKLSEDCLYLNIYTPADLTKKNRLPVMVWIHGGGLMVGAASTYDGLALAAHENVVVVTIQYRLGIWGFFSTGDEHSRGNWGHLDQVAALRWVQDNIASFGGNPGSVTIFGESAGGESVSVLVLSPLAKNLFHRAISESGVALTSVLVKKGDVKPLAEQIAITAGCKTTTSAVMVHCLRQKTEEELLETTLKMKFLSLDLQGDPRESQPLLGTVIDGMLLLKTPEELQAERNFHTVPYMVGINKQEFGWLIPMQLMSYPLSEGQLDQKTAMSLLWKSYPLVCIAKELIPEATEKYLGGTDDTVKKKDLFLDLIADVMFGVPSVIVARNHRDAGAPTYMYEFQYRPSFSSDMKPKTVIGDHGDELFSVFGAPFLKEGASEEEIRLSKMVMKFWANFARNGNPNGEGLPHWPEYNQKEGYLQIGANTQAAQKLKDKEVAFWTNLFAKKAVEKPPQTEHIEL

[3] = test system: P388; assay: Antiproliferative activity against mouse P388 cells incubated for 36 hrs; type: functional, cell-based; settings: P388, 36 h
[4] = test system: RPMI-7951; assay: Antiproliferative activity against human RPMI-7951 cells incubated for 36 hrs; type: functional, cell-based; settings: RPMI-7951, 36 h
[5] = test system: HCT-8; assay: Antiproliferative activity against human HCT-8 cells incubated for 36 hrs; type: functional, cell-based; settings: HCT-8, 36 h
[6] = Inhibition of bovine brain tubulin polymerization preincubated for 15 mins followed by GTP addition; parameters: species or system Bos taurus
[7] = test system: TE-671; assay: Antiproliferative activity against human TE-671 cells incubated for 36 hrs; type: functional, cell-based; settings: TE-671, 36 h
[8] = test system: A549; assay: Antiproliferative activity against human A549 cells incubated for 36 hrs; type: functional, cell-based; settings: A549, 36 h
[9] = test system: KB; assay: Antiproliferative activity against human KB cells incubated for 36 hrs; type: functional, cell-based
[10] = species on record: Bos taurus; assay: Inhibition of bovine brain tubulin polymerization preincubated for 15 mins followed by GTP addition and measured for 30 mins by spectrophotometric method
[11] = test system: KB 3-1; assay: Antiproliferative activity against human KB-31 cells incubated for 96 hrs by spectrophotometric method; type: functional, cell-based; settings: KB 3-1, 96 h
[12] = Antiproliferative activity against human KB-8511 cells incubated for 96 hrs by spectrophotometric method; type: functional, cell-based; settings: KB-ChR-8-5-11, 96 h
[13] = test system: HaCaT; assay: Cytotoxicity against human HaCaT cells incubated for 72 hrs by MTT assay; type: functional, cell-based
[14] = test system: PANC-1; assay: Cytotoxicity against human PANC1 cells incubated for 72 hrs by MTT assay; type: functional, cell-based; settings: PANC-1, 72 h
[15] = test system: SF-268; assay: Cytotoxicity against human SF-268 cells by calcein AM reagent based fluorescence method; type: functional, cell-based
[16] = test system: HCT-116; assay: Cytotoxicity against human HCT-116 cells by cell titer-glow assay; type: functional, cell-based
[17] = test system: HCT-116; assay: Cytotoxicity against human HCT-116 cells by calcein AM reagent based fluorescence method; type: functional, cell-based
[18] = test system: SF-268; assay: Cytotoxicity against human SF-268 cells by cell titer-glow assay; type: functional, cell-based
[19] = test system: PANC-1; assay: Antiproliferative activity against human PANC1 cells incubated for 72 hrs by WST assay; type: functional, cell-based; settings: PANC-1, 72 h
[20] = test system: DU-145; assay: Antiproliferative activity against human DU145 cells incubated for 72 hrs by WST assay; type: functional, cell-based; settings: DU-145, 72 h
[21] = test system: BJAB; assay: Cytotoxicity against human BJAB cells; type: functional, cell-based
[22] = Inhibition of calf brain tubulin by turbidimetry; parameters: species or system Bos taurus
[23] = molecular target: Tubulin; assay: Inhibition of tubulin polymerization (unknown origin); type: protein-complex assay, Homo sapiens

With `COc1cc2c(c(OC)c1OC)-c1ccc(NCCCCCC(=O)N[C@@H](CC(C)C)C(=O)OC3CCCC3)c(=O)cc1[C@@H](NC(C)=O)CC2` as the molecule, how does the pIC50 [1] read?
Its pIC50 is 5.34.

What about the metabolised at 2 h [2] of the same molecule?
Its metabolised at 2 h is 36%.

With `C=C1Cc2cc(OC)c(OC)c(OC)c2-c2ccc(SC)c(=O)cc21` as the molecule, how does the pIC50 [3] read?
Its pIC50 is 7.66.

And the pIC50 [4]?
The pIC50 was 10.08.

And the pIC50 [5]?
The pIC50 was 6.80.

What about the pIC50 [6] of the same molecule?
Its pIC50 is 5.62.

And the pIC50 [7]?
Its pIC50 is 10.08.

What about the pIC50 [8] of the same molecule?
The pIC50 was 6.60.

What about the pIC50 [9] of the same molecule?
The pIC50 was 6.85.

With `COc1c(COC(C)=O)c2c(c(OC)c1OC)-c1ccc(OC)c(=O)cc1[C@@H](NC(C)=O)CC2` as the molecule, how does the inhibition [10] read?
The inhibition was 100%.

What about the pIC50 [11] of the same molecule?
Its pIC50 is under 6.00.

What about the pIC50 [12] of the same molecule?
Its pIC50 is under 6.00.

What does the source list for `COC(=O)c1ccc2c(c1)[C@@H](NC(=O)CO)CCc1cc(OC)c(OC)c(OC)c1-2`?
pIC50 [13]: 7.80; pIC50 [14]: 7.10

Which inhibition [10] does the source give for `COc1c(CO)c2c(c(OC)c1OC)-c1ccc(OC)c(=O)cc1[C@@H](NC(C)=O)CC2` here?
Its inhibition is 100%.

And the pIC50 [12]?
The pIC50 was under 6.00.

Which results are given for `COc1cc2c(c(OC)c1OC)-c1ccc(OC)c(=O)cc1[C@@H](NC(=O)CN(OC)C1O[C@H](C(C)=O)[C@H](O)[C@H](O)[C@H]1O)CC2` (some centres not stated)?
pIC50 [15]: 6.52; pIC50 [16]: 6.52; pIC50 [17]: 6.52; pIC50 [18]: 6.52

For `COc1c(CN(C)C(C)=O)c2c(c(OC)c1OC)-c1ccc(OC)c(=O)cc1[C@@H](NC(C)=O)CC2`, which inhibition [10] is on record?
Its inhibition is 0%.

What about the pIC50 [11] of the same molecule?
The pIC50 was under 6.00.

And the pIC50 [12]?
Its pIC50 is under 6.00.

With `COc1cc2c(c(OC)c1OC)-c1ccc(OC)c(=O)cc1[C@@H](NC(=O)CN(OC)C1C[C@H](O)[C@H](O)CO1)CC2` (some centres not stated) as the molecule, how does the pIC50 [15] read?
The pIC50 was 6.52.

What about the pIC50 [16] of the same molecule?
The pIC50 was 6.52.

What about the pIC50 [17] of the same molecule?
Its pIC50 is 6.52.

What about the pIC50 [18] of the same molecule?
Its pIC50 is 6.52.

What does the source list for `CCOC(=O)NCc1c2c(c(OC)c(OC)c1OC)-c1ccc(OC)c(=O)cc1[C@@H](NC(C)=O)CC2`?
inhibition [10]: 0%; pIC50 [11]: < 6.00; pIC50 [12]: < 6.00

With `COC(=O)NC1CCc2cc(OC)c(OC)c(OC)c2-c2ccc(F)cc21` (configuration not stated) as the molecule, how does the pIC50 [19] read?
The pIC50 was 5.15.

And the pIC50 [20]?
Its pIC50 is 5.85.

With `COc1cc2c(c(OC)c1OC)-c1ccc(OC)c(=O)cc1[C@@H](n1cc(CCC(=O)Cc3ccc4oc(=O)ccc4c3)nn1)CC2` as the molecule, how does the pIC50 [21] read?
The pIC50 was 7.22.

With `COc1ccc2c(c1)[C@@H](NC(C)=O)CCc1cc(OC)c(OC)c(OC)c1-2` as the molecule, how does the pIC50 [22] read?
Its pIC50 is 6.52.

And the pIC50 [19]?
Its pIC50 is 7.10.

What about the pIC50 [20] of the same molecule?
Its pIC50 is 6.11.

With `COc1ccc2c(c1)C(=O)CCc1cc(OC)c(OC)c(OC)c1-2` as the molecule, how does the pIC50 [22] read?
The pIC50 was 6.37.

With `COc1ccc2c(c1)/C(=N\O)CCc1cc(OC)c(OC)c(OC)c1-2` as the molecule, how does the pIC50 [22] read?
Its pIC50 is 6.48.

What does the source list for `COc1cc2c(c(OC)c1OC)-c1ccc(NCCC(O)C(=O)N[C@H](C(=O)OC3CCCC3)c3ccccc3)c(=O)cc1[C@@H](NC(C)=O)CC2` (some centres not stated)?
pIC50 [1]: 6.66; metabolised at 2 h [2]: 0%

With `COc1cc2c(c(OC)c1OC)-c1ccc(O)cc1[C@@H](NC(C)=O)CC2` [N-ACETYLCOLCHINOL] as the molecule, how does the pIC50 [19] read?
Its pIC50 is 5.36.

And the pIC50 [20]?
Its pIC50 is 6.14.

Which results are given for `COc1c(CNC(C)=O)c2c(c(OC)c1OC)-c1ccc(OC)c(=O)cc1[C@@H](NC(C)=O)CC2`?
inhibition [10]: 0%; pIC50 [11]: < 6.00; pIC50 [12]: < 6.00

With `COc1ccc2c(c1)NC(=O)CCc1cc(OC)c(OC)c(OC)c1-2` as the molecule, how does the pIC50 [22] read?
The pIC50 was 4.68.

With `COc1cc2c(c(OC)c1OC)-c1ccc(OC)c(=O)cc1C(=O)CC2` as the molecule, how does the pIC50 [23] read?
The pIC50 was 5.96.

With `CCCCCCCCCCCC(=O)OCc1cn([C@H]2CCc3cc(OC)c(OC)c(OC)c3-c3ccc(OC)c(=O)cc32)nn1` as the molecule, how does the pIC50 [21] read?
The pIC50 was 8.40.

With `COc1cc2c(c(OC)c1OC)-c1ccc(OC)c(=O)cc1[C@@H](NC(=O)CN(OC)C1O[C@@H]3OC(=O)[C@@H](O)[C@@H]3[C@@H]1O)CC2` (some centres not stated) as the molecule, how does the pIC50 [15] read?
The pIC50 was 6.52.

And the pIC50 [16]?
Its pIC50 is 6.52.

What about the pIC50 [17] of the same molecule?
Its pIC50 is 6.52.

And the pIC50 [18]?
Its pIC50 is 6.52.
